# Where two headings read alike, the source gives them in different places.
# B1: B/PI: 55 kD protein B/PI, bactericidal/permeability increasing protein (protein, UniProt P17213 32-487, looked up)
# Bactericidal …: VNPGVVVRISQKGLDYASQQGTAALQKELKRIKIPDYSDSFKIKHLGKGHYSFYSMDIREFQLPSSQISMVPNVGLKFSISNANIKISGKWKAQKRFLKMSGNFDLSIEGMSISADLKLGSNPTSGKPTITCSSCSSHINSVHVHISKSKVGWLIQLFHKKIESALRNKMNSQVCEKVTNSVSSELQPYFQTLPVMTKIDSVAGINYGLVAPPATTAETLDVQMKGEFYSENHHNPPPFAPPVMEFPAAHDRMVYLGLSDYFFNTAGLVYQEAGVLKMTLRDDMIPKESKFRLTTKFFGTFLPEVAKKFPNMKIQIHVSASTPPHLSVQPTGLTFYPAVDVQAFAVLPNSSLASLFLIGMHTTGSMEVSAESNRLVGELKLDRLLLELKHSNIGPFPVELLQDIMNYIVPILVLPRVNEKLQKGFPLPTPARVQLYNVVLQPHQNFLLFGADVVYK
# Legend:
# [1] = test system: Staphylococcus aureus MN8; test: Bactericidal assay, Gram-positive S. aureus MN8; format: cell-based; details: Table 1, SD about ±30%
# Excerpt: (§1) Pseudomonas aeruginosa type 1 is a clinical, smooth strain isolate serotyped by using the scheme of Homma, Japan. J. Exp. Med. 46, 329–336 (1976) and maintained in the lab by monthly transfer on blood agar plates. E. coli J96, IA2, and H5 are smooth strain, uropathogenic clinical isolates kindly maintained and provided by J. R. Johnson and described in Johnson et al., J. Infect. Disease 173, 920–926 (1996) for J96 and IA2 and in Johnson et al., J. Infect. Disease 173, 746–749 (1996) for H5. J5 is an E. coli rough strain initially referenced by G. R. Siber and discussed in Warren et al., Infect. Immunity 55, 1668–1673 (1987) and is analogous to the smooth strain E. coli 0111:B4 used in the BioWhittaker LAL endotoxin detection and quantitation kit described below. Gram-positive MN8 and MNHO are two patient isolates of Staphylococcus aureus, which were kindly provided by P. M. Schlievert and described in Bohach et al., Rev. Infect. […]
# (§2) Pyrogen-free solutions were used throughout the assay. […] Plates were incubated overnight at 37° C. and counted the next morning. The dilution containing 10–100 bacteria was counted and the number multiplied by 50 to adjust all counts to the number bacteria killed per milliliter. […] Bactericidal activity was determined by dose response where LD50 values were determined by best fits of a sigmoidal curve to the dose response data.
# [2] = test system: bacteria; details: Mayo et al. 1998; cited from earlier work
# [3] = test system: E. coli 055:B5 LPS; test: Limulus amoebocyte lysate assay for LPS neutralization; format: biochemical
# Excerpt: The ability of synthetic peptides to neutralize endotoxin was detected using the chromogenic QCL-1000 kit from BioWhittaker, Inc. (Walkersville, Md.) as described in their protocol. This method is quantitative for Gram-negative bacterial endotoxin (lipopolysaccharide, LPS). In the Limulus amebocyte lysate (LAL) assay, peptides that are active inhibit the LPS-mediated activation of a proenzyme (Young et al., J. Clin. Invest. 51, 1790–1797 (1972)) whose active form would release p-nitroaniline (pNA) from a colorless synthetic substrate (Ac-Ile-Glu-Ala-Arg-pNA), producing a yellow color (pNA) whose absorption is monitored spectrophotometrically at 405–410 nm. The initial rate of enzyme activation is proportional to the concentration of endotoxin present. The concentration of peptide required to bind to LPS and therefore to inhibit the Limulus amoebocyte lysate driven by 0.04 unit (or 0.01 ng) of E. coli 055:B5 LPS (from SIGMA) was determined by dose response.
# [4] = test system: E. coli IA2; test: Bactericidal assay, smooth strain E. coli IA2; format: cell-based; details: Table 1, SD about ±30%
# Excerpt: as §1, §2
# [5] = test system: E. coli H5; test: Bactericidal assay, smooth strain E. coli H5; format: cell-based; details: Table 1, SD about ±30%
# Excerpt: as §1, §2
# [6] = test system: E. coli J96; format: cell-based; details: Table 1; E. coli J96; SD about ±30%
# Excerpt: (§3) Pseudomonas aeruginosa type 1 is a clinical, smooth strain isolate serotyped by using the scheme of Homma, Japan. J. Exp. Med. 46, 329–336 (1976) and maintained in the lab by monthly transfer on blood agar plates. E. coli J96, IA2, and H5 are smooth strain, uropathogenic clinical isolates kindly maintained and provided by J. R. Johnson and described in Johnson et al., J. Infect. Disease 173, 920–926 (1996) for J96 and IA2 and in Johnson et al., J. Infect. Disease 173, 746–749 (1996) for H5. J5 is an E. coli rough strain initially referenced by G. R. Siber and discussed in Warren et al., Infect. Immunity 55, 1668–1673 (1987) and is analogous to the smooth strain E. coli 0111:B4 used in the BioWhittaker LAL endotoxin detection and quantitation kit described below. Gram-positive MN8 and MNHO are two patient isolates of Staphylococcus aureus, which were kindly provided by P. M. Schlievert and described in Bohach et al., Rev. Infect. Diseases 11, 75–82 (1989) for MNHO and in Schlievert et al., J. Infect. Diseases 147, 236–242 (1983) for MN8. All cultures are maintained on nutrient agar plates.
# Pyrogen-free solutions were used throughout the assay. Log phase bacteria were obtained by transferring an overnight culture or scraping crystals off −85° C. glycerol stocks of overnight cultures. Bacteria were washed and resuspended in 0.9% sodium chloride with adjustment to an optical density at 650 nm which yields 3×10^8 CFU/ml. Bacteria were then diluted 1:10 in 0.08 M citrate phosphate buffer, pH 7.0 (prepared by mixing 0.08 M citric acid with 0.08 M dibasic sodium phosphate). Bacteria (0.15 ml) were incubated with peptide in a final volume of 1.0 ml of buffer. […] Plates were incubated overnight at 37° C. and counted the next morning. The dilution containing 10–100 bacteria was counted and the number multiplied by 50 to adjust all counts to the number bacteria killed per milliliter. […] Bactericidal activity was determined by dose response where LD50 values were determined by best fits of a sigmoidal curve to the dose response data.
# [7] = test system: Staphylococcus aureus MNHO; test: Bactericidal assay, Gram-positive S. aureus MNHO; format: cell-based; details: Table 1; S. aureus MNHO; SD about ±30%
# Excerpt: as §3
# (§4) Pyrogen-free solutions were used throughout the assay. Log phase bacteria were obtained by transferring an overnight culture or scraping crystals off −85° C. glycerol stocks of overnight cultures. Bacteria were washed and resuspended in 0.9% sodium chloride with adjustment to an optical density at 650 nm which yields 3×10^8 CFU/ml. Bacteria were then diluted 1:10 in 0.08 M citrate phosphate buffer, pH 7.0 (prepared by mixing 0.08 M citric acid with 0.08 M dibasic sodium phosphate). Bacteria (0.15 ml) were incubated with peptide in a final volume of 1.0 ml of buffer. The assay was done in 17×100 polypropylene tubes in a reciprocal water bath shaker at 37° C. for 30 minutes. Following this 30 minute (min) incubation, 10-fold dilutions were made in 0.9% sodium chloride. Dilutions were done to 10^−4 and 20 μl of each dilution was streaked across an agar plate. Gram-positive organisms were plated on nutrient agar plates containing 2% agar and Gram-negative organisms were plated on MacConkey agar (2%). Plates were incubated overnight at 37° C. and counted the next morning. The dilution containing 10–100 bacteria was counted and the number multiplied by 50 to adjust all counts to the number bacteria killed per milliliter. Peptide concentrations were converted to logarithm base ten and graphed. Bactericidal activity was determined by dose response where LD50 values were determined by best fits of a sigmoidal curve to the dose response data.
# [8] = test system: E. coli J5; test: Bactericidal assay, rough strain E. coli J5; format: cell-based; details: Table 1; E. coli J5; SD about ±30%
# Excerpt: as §3, §4
# [9] = test system: Pseudomonas aeruginosa type 1; test: Bactericidal assay, P. aeruginosa (P.a.); format: cell-based; details: Table 1; P. aeruginosa; SD about ±30%
# Excerpt: as §3, §4
# [10] = test system: P. aeruginosa; details: against P. aeruginosa; Lee et al. 1989; cited from earlier work
# [11] = literature value; read-out: LPS binding activity (IC50); cited from earlier work
molecule,measurement,setting,value
"SIQKLNVSMKLFRKQAKWKIIVKLNDGRELSLD [βpep-19, reference compound]","LD50 bactericidal activity, Gram-positive MN8",[1],0.25 10^−6 M
same,bactericidal concentration range,[2],~10^−8 M
same,IC50,"[3]; Table 1, SD about ±30%, read-out: LPS effect, IC50 for neutralization of LPS",2000 nM
same,IC50,[3]; read-out: IC50 LPS neutralization,~2000 nM
same,"LD50 bactericidal activity, Gram neg. smooth IA2",[4],0.06 10^−6 M
same,"LD50 bactericidal activity, Gram neg. smooth H5",[5],0.71 10^−6 M
same,"LD50 bactericidal activity, Gram neg. smooth J96",[6],0.1 10^−6 M
same,"LD50 bactericidal activity, Gram-positive MNHO",[7],0.16 10^−6 M
same,"LD50 bactericidal activity, Gram neg. rough J5",[8],0.01 10^−6 M
same,"LD50 bactericidal activity, Gram neg. smooth P.a.",[9],0.03 10^−6 M
cecropin P1,lethal concentration,[10],6 µM
B1,IC50,[11],20 nM

# Reference: patent US7144982B2, “Polypeptides with therapeutic activity and methods of use” (University of Minnesota, priority 2000, dated 2006)
